# Assays:
# Format in all cases: in vivo
# [1] = test system: Alopecurus myosuroides (ALOMY); assay: Post-emergence herbicidal action against ALOMY; conditions: visual rating about 3 weeks after treatment vs untreated controls (100% = plants have died, 0% = like control plants)
# Outline: (§1)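 Greenhouse plants sprayed at the one-leaf stage, 2–3 weeks after sowing, with WP or EC formulations plus 0.5% additive at 600 l/ha water. Activity rated visually after about 3 weeks versus untreated controls (100% = dead, 0% = like control), at 320 g/ha or lower.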
# [2] = test system: Amaranthus retroflexus (AMARE); assay: Pre-emergence herbicidal action against AMARE; conditions: visual scoring after about 3 weeks vs untreated controls
# Outline: (§2)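 Read-out is visual percent damage relative to untreated pots, with 100% meaning dead plants and 0% meaning no difference, assessed roughly three weeks after treatment. Compounds were applied pre-emergence to the covering soil at up to 320 g/ha.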
# [3] = test system: Polygonum convolvulus (POLCO); assay: Post-emergence herbicidal action against POLCO
# Outline: as §1
# [4] = test system: Polygonum convolvulus (POLCO); assay: Pre-emergence herbicidal action against POLCO
# Outline: as §2
# [5] = test system: Echinochloa crus-galli (ECHCG); assay: Post-emergence herbicidal action against ECHCG
# Outline: as §1
# [6] = test system: Echinochloa crus-galli (ECHCG); assay: Pre-emergence herbicidal action against ECHCG
# Outline: as §2
# [7] = test system: Lolium rigidum (LOLRI); assay: Post-emergence herbicidal action against LOLRI
# Outline: as §1
# [8] = test system: Alopecurus myosuroides (ALOMY); assay: Pre-emergence herbicidal action against ALOMY; conditions: scored visually after about 3 weeks, 100% = plants have died
# Outline: as §2
# [9] = test system: Abutilon theophrasti (ABUTH); assay: Post-emergence herbicidal action against ABUTH; conditions: visual rating about 3 weeks after treatment vs untreated controls (100% = plants have died, 0% = like control plants)
# Outline: as §1
# [10] = test system: Matricaria inodora (MATIN); assay: Pre-emergence herbicidal action against MATIN
# Outline: as §2
SMILES,Post-emergence action against ALOMY in % ([1]; 80 g/ha) [%],Post-emergence action against ALOMY in % ([1]; 320 g/ha) [%],Pre-emergence action against AMARE in % ([2]; 80 g/ha) [%],Pre-emergence action against AMARE in % ([2]; 320 g/ha) [%],Post-emergence action against POLCO in % ([3]; dosage 80 g/ha) [%],Post-emergence action against POLCO in % ([3]; dosage 320 g/ha) [%],Pre-emergence action against POLCO in % ([4]; dosage 80 g/ha) [%],Pre-emergence action against POLCO in % ([4]; dosage 320 g/ha) [%],Post-emergence action against ECHCG in % ([5]; dosage 80 g/ha) [%],Post-emergence action against ECHCG in % ([5]; dosage 320 g/ha) [%],Pre-emergence action against ECHCG in % ([6]; dosage 80 g/ha) [%],Pre-emergence action against ECHCG in % ([6]; dosage 320 g/ha) [%],Post-emergence action against LOLRI in % ([7]; dosage 80 g/ha) [%],Post-emergence action against LOLRI in % ([7]; dosage 320 g/ha) [%],Pre-emergence action against ALOMY ([8]; 80 g/ha) [%],Pre-emergence action against ALOMY ([8]; 320 g/ha) [%],Post-emergence action against ABUTH in % ([9]; 80 g/ha) [%],Post-emergence action against ABUTH in % ([9]; 320 g/ha) [%],Pre-emergence action against MATIN in % ([10]; dosage 80 g/ha) [%],Pre-emergence action against MATIN in % ([10]; dosage 320 g/ha) [%]
C[C@@H](Oc1nn(-c2ncccc2F)c(-c2ccc(F)nc2)c1C1CC1)C(=O)O [Example I-342],100,100,100,100,80,90,90,100,90,90,100,100,90,90,100,100,80,90,100,100
CCOC(=O)COc1nn(-c2ccccn2)c(-c2ccc(F)nc2)c1Cl [Example I-85],–,100,90,100,90,90,–,100,90,90,100,100,100,100,80,90,90,90,100,100
O=C(O)COc1nn(-c2ncccc2F)c(-c2cncc(F)c2)c1C1CC1 [Example I-175],90,90,100,100,80,80,90,90,80,80,100,100,80,80,100,100,80,80,90,90
COC(=O)CCOC(=O)[C@@H](C)Oc1nn(-c2ccccn2)c(-c2cncc(F)c2)c1Cl [Example I-196],80,90,100,100,80,80,90,90,80,80,90,90,90,90,–,90,80,80,90,90
CCOC(=O)[C@@H](C)Oc1nn(-c2ncccc2F)c(-c2ccc(F)nc2)c1C1CC1 [Example I-375],100,100,100,100,80,90,90,90,90,90,80,100,90,90,80,90,90,90,100,100
COC(=O)[C@@H](C)Oc1nn(-c2ncccc2F)c(-c2ccc(F)nc2)c1C1CC1 [Example I-307],100,100,100,100,80,80,90,100,90,90,100,100,100,100,80,90,–,90,90,100
COC(=O)C(C)NC(=O)[C@@H](C)Oc1nn(-c2ccccn2)c(-c2cncc(F)c2)c1Br (some centres unmarked) [Example I-190],80,100,90,100,80,80,90,90,80,80,90,100,90,90,80,90,80,80,90,90
COCCOC(=O)COc1nn(-c2ccccn2)c(-c2ccc(F)nc2)c1Br [Example I-96],90,90,90,100,80,80,90,90,90,90,80,100,90,90,80,100,90,90,–,100
